Results from ChEMBL document CHEMBL5338814, “Discovery of Small-Molecule Degraders for Alpha-Synuclein Aggregates” (J Med Chem, 2023).
Values belong to the compound of their own block, whether it stands above or below them. Calls of active or inactive are those of the source. No cut-off for these calls is given here.

Tests used:
[1] = target: T1, Protein cereblon/Alpha-synuclein (Homo sapiens) (UniProt P37840+Q96SW2); test: PROTAC activity at CRBN/recombinant alpha-synuclein preformed fibrils seeded in HEK293T cells assessed as decrease in alpha-synuclein aggregates at 5 to 20 uM measured after 48 hrs by immunoblot analysis; assay type: cell-based; conditions: dose 5-20 µM
[2] = target: Baculoviral IAP repeat-containing protein 2/Alpha-synuclein (Homo sapiens) (UniProt Q13490+P37840); test: PROTAC activity at cIAP1/recombinant alpha-synuclein preformed fibrils seeded in HEK293T cells assessed as decrease in alpha-synuclein aggregates upto 40 uM measured after 48 hrs by immunoblot analysis; assay type: cell-based
[3] = target: T1, Protein cereblon/Alpha-synuclein (Homo sapiens); test: PROTAC activity at CRBN/recombinant alpha-synuclein preformed fibrils seeded in HEK293T cells assessed as decrease in alpha-synuclein aggregates upto 40 uM measured after 48 hrs by immunoblot analysis; assay type: cell-based
[4] = target: von Hippel-Lindau disease tumor suppressor/Alpha-synuclein (Homo sapiens) (UniProt P37840+P40337); test: PROTAC activity at VHL/recombinant alpha-synuclein preformed fibrils seeded in HEK293T cells assessed as decrease in alpha-synuclein aggregates upto 40 uM measured after 48 hrs by immunoblot analysis; assay type: cell-based
[5] = 1-Octanol-water partition coefficient, logP of the compound incubated for 24 hrs by HPLC analysis; assay type: physicochemical
[6] = system: HEK-293T; test: Activation of autophagy-lysosome pathway in HEK293T cells seeded with recombinant alpha-synuclein preformed fibrils harboring adenovirus-mCherry-GFP-LC3B assessed as increase in LC3B punctae number at 10 uM treated for 6 hrs by DAPI staining based confocal laser scanning microscopic analysis; assay type: functional, cell-based; conditions: Homo sapiens
[7] = system: HEK-293T; test: Activation of autophagy-lysosome pathway in HEK293T cells seeded with recombinant alpha-synuclein preformed fibrils assessed as increase in LAMP1 expression at 10 uM incubated for 6 hrs by immunoblot analysis; assay type: functional, cell-based; conditions: Homo sapiens
[8] = system: HEK-293T; test: Activation of autophagy-lysosome pathway in HEK293T cells seeded with recombinant alpha-synuclein preformed fibrils harboring adenovirus-mCherry-GFP-LC3B assessed as increase in GFP(-) punctae ratio at 10 uM treated for 6 hrs by DAPI staining based confocal laser scanning microscopic analysis; assay type: functional, cell-based; conditions: Homo sapiens
[9] = system: HEK-293T; test: Activation of autophagy-lysosome pathway in HEK293T cells seeded with recombinant alpha-synuclein preformed fibrils assessed as decrease in p62 level at 10 uM incubated for 6 hrs by immunoblot analysis; assay type: functional, cell-based; conditions: Homo sapiens
[10] = system: HEK-293T; test: Activation of autophagy-lysosome pathway in HEK293T cells seeded with recombinant alpha-synuclein preformed fibrils harboring adenovirus-mCherry-GFP-LC3B assessed as increase in LC3B punctae density at 10 uM treated for 6 hrs by DAPI staining based confocal laser scanning microscopic analysis; assay type: functional, cell-based; conditions: Homo sapiens
[11] = Drug uptake in HEK293T cell membrane at 10 uM measured at 5 to 360 min by confocal laser scanning microscopic analysis; assay type: ADME, cell membranes; conditions: human, hek-293t, time 5-360 min
[12] = system: HEK-293T; test: Activation of autophagy-lysosome pathway in HEK293T cells seeded with recombinant alpha-synuclein preformed fibrils assessed as increase in LC3B-II/I ratio at 10 uM incubated for 6 hrs by immunoblot analysis; assay type: functional, cell-based; conditions: Homo sapiens
[13] = system: HEK-293T; test: Effect on alpha-synuclein total level in HEK293T cells upto 40 uM measured after 48 hrs by immunoblot analysis; assay type: functional, cell-based; conditions: Homo sapiens
[14] = system: HEK-293T; test: Downregulation of alpha-synuclein in HEK293T cells seeded with recombinant alpha-synuclein preformed fibrils at 10 uM incubated for 24 hrs by label free quantification based proteomics analysis; assay type: functional, cell-based; conditions: Homo sapiens
[15] = system: SH-SY5Y; test: Neuroprotective activity against alpha-synuclein aggregate-induced cell injury in human SH-SY5Y cells over-expressing alpha-synuclein preformed fibrils assessed as decrease in LDH release at 10 uM by LDH assay; assay type: functional, cell-based
[16] = system: Caenorhabditis elegans; test: In vivo PROTAC activity at CRBN/Alpha-synuclein overexpressed in Caenorhabditis elegans NL5901 co-expressing YFP fusion protein assessed as induction of alpha-synuclein aggregate degradation incubated for 48 hrs by immunoblot analysis; assay type: functional, organism-based; conditions: dose 20-80 µM
[17] = system: HEK-293T; test: Effect on alpha-synuclein total level in HEK293T cells seeded with recombinant alpha-synuclein preformed fibrils upto 40 uM measured after 48 hrs by immunoblot analysis; assay type: functional, cell-based; conditions: Homo sapiens
[18] = system: HEK-293T; test: Activation of autophagy-lysosome pathway in HEK293T cells seeded with recombinant alpha-synuclein preformed fibrils assessed as increase in lysosome generation at 10 uM incubated for 6 hrs by LyTR staining based confocal laser scanning microscopic analysis; assay type: functional, cell-based; conditions: Homo sapiens
[19] = system: Caenorhabditis elegans; test: In vivo PROTAC activity at CRBN/Alpha-synuclein overexpressed in Caenorhabditis elegans NL5901 co-expressing YFP fusion protein assessed as induction of alpha-synuclein aggregate degradation incubated for 48 hrs by dot blot analysis; assay type: functional, organism-based; conditions: dose 20-80 µM
[20] = system: SH-SY5Y; test: Neuroprotective activity against alpha-synuclein aggregate-induced cell death in human SH-SY5Y cells over-expressing alpha-synuclein preformed fibrils assessed as decrease in cell death at 10 uM by CCK8 assay; assay type: functional, cell-based
[21] = system: Caenorhabditis elegans; test: In vivo PROTAC activity at CRBN/Alpha-synuclein overexpressed in Caenorhabditis elegans NL5901 co-expressing YFP fusion protein assessed as reduction in alpha-synuclein-YFP MFI at 20 to 80 uM incubated for 48 hrs by confocal laser scanning microscopic analysis; assay type: functional, organism-based; conditions: dose 20-80 µM
[22] = system: Caenorhabditis elegans; test: In vivo PROTAC activity at CRBN/Alpha-synuclein overexpressed in Caenorhabditis elegans NL5901 co-expressing YFP fusion protein assessed as reduction in alpha-synuclein-YFP level at 20 to 80 uM incubated for 48 hrs by confocal laser scanning microscopic analysis; assay type: functional, organism-based; conditions: dose 20-80 µM

SMILES: CN1C(=O)CCC(N2C(=O)c3cccc(NCCOCCOCCOCCNC(=O)CNc4cccc(-c5cc(-c6ccc7c(c6)OCO7)n[nH]5)c4)c3C2=O)C1=O (stereo not given)
Activity [1]: inactive

SMILES: O=C(CNc1cccc(-c2cc(-c3ccc4c(c3)OCO4)n[nH]2)c1)NCCOCCOCCOCCNc1cccc2c1C(=O)N(C1CCC(=O)NC1=O)C2=O (stereo not given)
logP at 24 h [5]: 2.04
Activity [6]: Active
Activity [7]: Active
Activity [8]: Active
Activity [9]: Active
Activity [10]: Active
Drug uptake [11]: Active
Activity [12]: Active
Activity [13]: inactive
Activity [14]: Active
Activity [15]: Active
Activity [16]: Dose-Dependent Effect
Activity [17]: inactive
Activity [18]: Active
Activity [19]: Dose-Dependent Effect
Activity [20]: Active
Activity [21]: Active
Activity [22]: Active

SMILES: Nc1cccc(-c2cc(-c3ccc4c(c3)OCO4)n[nH]2)c1
Activity [1]: inactive

The remaining lines, values ahead:

Activity [2]: Active
SMILES: CC(C)C[C@H](NC(=O)[C@@H](O)[C@H](N)Cc1ccccc1)C(=O)NCCOCCOCCNc1cccc(-c2cc(-c3ccc4c(c3)OCO4)n[nH]2)c1

Activity [3]: Active
SMILES: O=C(CNc1cccc(-c2cc(-c3ccc4c(c3)OCO4)n[nH]2)c1)NCCOCCOCCNc1cccc2c1C(=O)N(C1CCC(=O)NC1=O)C2=O (stereo not given)

Activity [2]: Active
SMILES: CC(C)C[C@H](NC(=O)[C@@H](O)[C@H](N)Cc1ccccc1)C(=O)NCCOCCOCCOCCNc1cccc(-c2cc(-c3ccc4c(c3)OCO4)n[nH]2)c1

Activity [4]: Active
SMILES: Cc1ncsc1-c1ccc([C@H](C)NC(=O)[C@@H]2C[C@@H](O)CN2C(=O)[C@@H](NC(=O)CCOCCOCCOCCNc2cccc(-c3cc(-c4ccc5c(c4)OCO5)n[nH]3)c2)C(C)(C)C)cc1

Activity [4]: Active
SMILES: Cc1ncsc1-c1ccc([C@H](C)NC(=O)[C@@H]2C[C@@H](O)CN2C(=O)[C@@H](NC(=O)CCOCCOCCNc2cccc(-c3cc(-c4ccc5c(c4)OCO5)n[nH]3)c2)C(C)(C)C)cc1
